Where a SMILES comes first, the peptide text is derived from it. [ ]: non-standard residue; d: D form. pT = C[C@@H](OP(=O)(O)O)[C@H](N)C(=O)O; 2Nal = N[C@@H](Cc1ccc2ccccc2c1)C(=O)O; Bta = N[C@@H](Cc1csc2ccccc12)C(=O)O; Pip = O=C(O)[C@@H]1CCCCN1
Assays:
Pin1 [1] = molecular target: T1, Pin1 (Homo sapiens, UniProt Q13526); experiment: Pin1 inhibition by retinoids in a cell culture model; assay type: cell-based
T1 construct: We performed FP-HTS in a 384-well plate format with full length Pin1
Method: As trans-RA is selected as the current lead compound, it is important to identify the essential moiety of RAs on Pin1 interaction for further lead optimization. Many commercially available retinoids were tested for Pin1 inhibition. […] Other RA compounds that are metabolized to contain an end carboxylic group are also likely to be useful in treating proliferative disorders (FIG. 10D). In addition, compounds that modulate the retinoic acid receptor (FIGS. 10D and 11A and compounds listed in Table 1) are also likely to be useful in treating proliferative disorders.

Pin1 [2] = molecular target: T1, Pin1; experiment: single-step fluorescence polarization-based displacement assay (FP-HTS); assay type: binding
Method: We used the FP-HTS with a 5 nM probe and 200 nM Pin1 to conduct a pilot screen on a selected set of chemical libraries.

Pin1 [3] = molecular target: T1, Pin1; experiment: PPIase assay; assay type: biochemical; settings: dose-dependent manner
Method: (§1) We used the FP-HTS with a 5 nM probe and 200 nM Pin1 to conduct a pilot screen on a selected set of chemical libraries. We obtained the resulting potential positive hits and grouped them into 3 classes according to the Z-score, which is folds of standard deviation below the mean. […] 1) cis-RA is not listed in promiscuous inhibitor databases 2) all-trans retinoic acid (trans-RA), the pairing compound of cis-RA, is currently used as oral prescription for patients with acute promyelocytic leukemia […]; 3) both cis-RA and trans-RAs are used as a medication in the phase II/III clinical trial for breast cancer, and more because of its ability to kill rapidly dividing cells; and 4) although it has been reported that RAs target on retinoic acid receptor (RAR), the exact mechanism of the anticancer action is unknown. As a result, we examined whether the anti-cancer effect of RAs depends on RAR in the breast cancer cells. […] In the PPIase assay, Pin1 activity was blocked by either cis- or trans-RA in a dose-dependent manner (FIG. 4).

Pin1 and DAPK1 = Pin1 and DAPK1 (Homo sapiens, UniProt Q13526); experiment: association between Pin1 and DAPK1 (competition); assay type: binding; settings: dose-dependent manner, trans being more potent
Sequence of Pin1 and DAPK1 (Q13526 whole entry): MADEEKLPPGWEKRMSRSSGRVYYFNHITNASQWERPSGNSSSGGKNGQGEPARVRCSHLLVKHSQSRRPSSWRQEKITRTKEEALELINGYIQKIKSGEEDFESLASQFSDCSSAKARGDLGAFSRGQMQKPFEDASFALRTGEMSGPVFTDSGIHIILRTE

[4] = tested on: Pin1 K63A, S67E, R68/69A, H59A or S71E; experiment: trans-RA binding to Pin1 point mutants; settings: point mutations K63A
Method: as §1

SKBR3 = experiment: cell viability; assay type: cell-based, human
Source text: (§2) This discrepancy between cell lines was correlated with the RAs' ability to suppress Pin1 expression. Pin1 level was decreased by treatment of RAs in drugs-responsive SKBR3 and T47D, but not in drugs-irresponsive normal cells, MCF10A (FIG. 7B), in which Pin1 target protein, cyclin D1, was served as biomarkers of in vivo Pin1 activity. […] To further confirm this premise, wild-type mouse embryonic fibroblast (WT MEF) and Pin1 knockout MEF (Pin1 KO MEF) were used to test trans-RA-mediated cell viability (FIGS. 9A-C). […] In addition, Pin1 KO MEF stably expressing WT Pin1, but not W34/K63A Pin1 mutant, enabled cells to re-sensitize trans-RA.

MCF10A = experiment: cell viability; assay type: cell-based; settings: normal cell line MCF10A
Source text: as §2

T47D = experiment: cell viability; assay type: cell-based
Source text: as §2

WT MEF and Pin1 KO MEF = experiment: trans-RA-mediated cell viability in MEF; assay type: cell-based, mouse
Source text: as §2

breast cancer cells = experiment: cis-RA-mediated cell death with RARα knockdown; assay type: cell-based

T1 sequence (Q13526 whole entry): as above

Row | Pin1 inhibition (Pin1 [1]) | Pin1 activity (Pin1 [3]) | association between Pin1 and DAPK1 (Pin1 and DAPK1) | IC50 (cell viability) (SKBR3) | IC50 (cell viability) (T47D) | Compound | cell viability (MCF10A) | further results
1 | maintained Pin1 inhibition | – | – | – | – | CCCCCCCCc1ccc(-c2ccc(C(=O)O)cc2)cc1 [AC-55649] | – | –
2 | maintained Pin1 inhibition | blocked | blocked | nano-molar range | nano-molar range | CC1=C(/C=C/C(C)=C/C=C/C(C)=C/C(=O)O)C(C)(C)CCC1 [trans-RA, (2E,4E,6E,8E)-3,7-dimethyl-9-(2,6,6-trimethylcyclohexen-1-yl)nona-2,4,6,8-tetraenoic acid] | remained unaffected | Pin1 inhibition in the FP assay (Pin1 [2]; compared with cis-RA): more prominent Pin1 inhibition than cis-RA; trans-RA binding to Pin1 [4]: completely or significantly abolished; cell viability (WT MEF and Pin1 KO MEF; Pin1 KO MEF compared with WT MEF): more resistant; cell viability (WT MEF and Pin1 KO MEF; Pin1 KO MEF stably expressing WT Pin1): re-sensitize
3 | maintained Pin1 inhibition | blocked | blocked | nano-molar range | nano-molar range | CC1=C(/C=C/C(C)=C/C=C/C(C)=C\C(=O)O)C(C)(C)CCC1 [cis-RA, (2Z,4E,6E,8E)-3,7-dimethyl-9-(2,6,6-trimethylcyclohexen-1-yl)nona-2,4,6,8-tetraenoic acid] | remained unaffected | pilot screen hit class according to Z-score (Pin1 [2]; 5 nM probe and 200 nM Pin1): top strong chemical; Pin1 inhibition in the FP assay (Pin1 [2]; long-term incubation with Pin1): eventually catch up with trans-RA; rescue of cis-RA-mediated cell death (breast cancer cells): only partially rescue
4 | – | – | – | – | – | C[C@@H](OP(=O)(O)O)[C@H](NC(=O)[C@@H](N)Cc1csc2ccccc12)C(=O)N1CCCC[C@H]1C(=O)N[C@@H](Cc1ccc2ccccc2c1)C(=O)O [pTide, Bth-L-phos.Thr-Pip-Nal] (H-[Bta][pT][Pip][2Nal]-OH; N-terminus and C-terminus assumed) | – | displacement of HF488 probe from Pin1 (Pin1 [2]): displaced

Row | Compound | Pin1 inhibition (Pin1 [1]) | Pin1 activity (Pin1 [3]) | association between Pin1 and DAPK1 (Pin1 and DAPK1) | IC50 (cell viability) (SKBR3) | IC50 (cell viability) (T47D) | cell viability (MCF10A) | further results
5 | COc1cc(C)c(/C=C/C(C)=C/C=C/C(C)=C/C(=O)O)c(C)c1C [acitretin] | maintained Pin1 inhibition | – | – | – | – | – | –

Source: US10265288B2, “Methods and compositions for the treatment of proliferative disorders” (Beth Israel Deaconess Medical Center, Inc., priority 2011, dated 2019)
